From patent publication US6509362B2, “N-phenylamide and N-pyridylamide derivatives, method of preparing them and pharmaceutical compositions containing them” (Merck Patent Gesellschaft mit Beschraenkter Haftung, priority 1997, dated 2003) come the findings set out here.

The test system of data set [1] is male Wistar rat fed a 2.5% cholesterol enriched diet. As to the kind of experiment: Test C: hypercholesterolemia model, cholesterol-fed rat. Format: in vivo. The settings on record: dose 0.78 mg/kg, oral. On the procedure:
(§1) Test C: hypercholesterolemia model; claim 1 compounds were tested by oral route in animals subjected to a cholesterol-rich diet;

In data set [2] the test system is rabbit fed a 0.5% cholesterol enriched diet. The experiment in a line: Test C: hypercholesterolemia model, cholesterol-fed rabbit. Format: in vivo. The settings on record: dose 0.1 mg/kg, oral. The method, then:
as §1

For data set [3], the system named is hepatic ACAT. The experiment in a line: Test A: in vitro hepatic ACAT inhibition in rat liver microsomes. Format: biochemical, rat (male Wistar). The settings on record: 14C-oleyl coenzyme A, read-out: IC50 (concentration of compound inhibiting the ACAT activity by 50%). The method, then:
Test A: measurement of in vitro hepatic ACAT inhibition in rats: male Wistar rats weighing 220-250 g were sacrificed by cervical dislocation; the liver was removed and homogenised to prepare the microsomal fraction by ultracentrifugation; these microsomes were incubated with ^14C-oleyl coenzyme A according to the method described by P. J. GILLIES et al., Exp. and Mol. Pathol. 1986, 44, 329-339; lipids were extracted from the incubate with a methanol-chloroforme mixture and ^14C-oleyl cholesterol was separated by TLC; the latter represented the measurement of the ACAT activity and the results were expressed in inhibitory concentration 50 (IC50) representing the concentration of compound inhibiting the ACAT activity by 50%.

The subject of data set [4] is intestinal absorption of cholesterol. The experiment in a line: Test B: intestinal absorption of cholesterol in rats. Format: in vivo, rat (male Wistar). The settings on record: Rattus norvegicus; per os, rats fasted 24 h, triton WR 1339 IV, 3H-cholesterol in serum; read-out: ED50 (quantity of compound inhibiting the intestinal absorption of cholesterol by 50%). The method, then: Test B: measurement of intestinal absorption of cholesterol in rats; […]; one hour later, […]; three hours later, 1 ml of blood was taken from the retro-orbital sinus: the blood radioactivity determined on 0.1 ml of serum represented the measurement of the absorption of ^3H-cholesterol. The results were expressed in effective dose 50 (ED50) in mg per kg of animal and represented the quantity of compound inhibiting the intestinal absorption of cholesterol by 50%.

`CSc1cc(C)nc(SC)c1NC(=O)CC1=C(c2ccccc2)c2ccccc2OC1` [Example 1, N-[2,4-Dimethylthio-6-methyl-3-pyridyl]-2-(4-phenyl-2H-3-benzo[b]pyranyl)acetamide] yielded a total cholesterol lowered in data set [1] (2.5% cholesterol diet for 8 days, treated for 2 days) of 50%. The “lipoprotein fraction on which the effect was observed” value in data set [1] (cholesterol-fed rat) and in data set [2] (cholesterol-fed rabbit) was “mainly observed on VLDL” in each case. Further, the total cholesterol decreased in data set [2] (0.5% cholesterol diet for 15 days, treated simultaneously) amounted to 70%. In addition, in data set [3], the IC50 came to 94 nM. For the same molecule, the ED50 in data set [4] is 0.005 mg/kg.
The molecule `CSc1cc(C)nc(SC)c1NC(=O)CC1=C(c2ccccc2)c2ccccc2CC1` [Example 4] displayed a melting point of 218 to 220 °C. Besides, in data set [3], the IC50 is 74 nM. For the same molecule, the median effective dose (ED50) in data set [4] worked out at 0.038 mg/kg.
The molecule `CSc1cc(C)nc(SC)c1NC(=O)CC1=C(c2ccc(F)cc2)c2ccccc2OC1` [Example 6] showed a melting point of 234 to 236 °C. Further, the IC50 in data set [3] was 31 nM. Further, the ED50 in data set [4] amounted to 0.023 mg/kg.
The molecule `CSc1cc(C)nc(SC)c1NC(=O)CC=CC1=C(c2ccccc2)c2ccccc2OC1` [Example 17, N-[2,4-Dimethylthio-6-methyl-3-pyridyl]-4-(4-phenyl-2H-3-benzo[b]pyranyl)but-3-enamide] registered a melting point of 204 to 206 °C.

By ED50 is commonly meant the dose at which the effect has come halfway, by size or by number of responders. What is called melting point is the temperature, or range, at which the solid turns liquid.
